Experimental data taken from US20110130421A1, “Methods and Compositions for the Treatment of Chronic Renal Hypertension” (Georgetown University, priority 2009, published 2011).
Entries after “also recorded” stand apart in the source; their conditions may differ.

Experiments:
[1] = tested on: essential hypertension; conditions: cited from earlier work
[2] = reported, in contrast to early stage 2K,1C rats; similar results in a hypercholesterolemic pig model; cited from earlier work
[3] = tested on: chronic 2K,1C Goldblatt rats; experiment: Acute interventions in anesthetized chronic 2K,1C rats twelve months after clipping: MAP, cortical blood flow and renal pO2 of the clipped kidney; assay type: in vivo, Sprague-Dawley rats
Method: (§1) As described in Welch et al., Hypertension, 41:692-696 (2003) and Palm et al., Hypertension, 51:345-351 (2008), young male Sprague-Dawley rats (80-100 g) were anesthetized with isoflurane (0.5-1.5%). A silver clip (0.2 mm) was placed around the left renal artery (2K,1C). Age-matched rats were used as controls (sham).
(§2) All rats received hydralazine+hydrochlorothiazide+reserpine (HHR; 30+10+0.2 mg·kg^−1·day^−1) in the drinking water as described in Welch et al., Kidney Int., 63:202-208 (2003) in order to maximize survival of the clipped rats. The HHR treatment was discontinued 14 days prior to undergoing the protocol described hereinafter.
(§3) Twelve months after clipping, all rats were anesthetized with Inactin (100 mg·kg^−1 i.p.; Sigma-Aldrich, St. Louis, Mo.), and an endotracheal tube was inserted for spontaneous respiration. Rats were prepared according to the protocol described in Palm et al., Hypertension, 51:345-351 (2008). Briefly, the left femoral artery was catheterized for monitoring mean arterial blood pressure (MAP) and the left femoral vein for infusion of saline (5 ml·kg bw^−1·h^−1). The left kidney was immobilized in a plastic cup while renal cortical pO2 and cortical blood flow (CBF) were measured with O2 microelectrodes (Unisense, Aarhus, Denmark) and laser-Doppler needle probes (Transonic Systems Inc, Ithaca, N.Y.) as described in Palm et al., Diabetologia, 46:1153-1160 (2003); Palm et al., Hypertension, 51:345-351 (2008); and Liss et al., Pflügers Arch., 434:705-711 (1997).
Measurements in 2K,1C rats were made before and after injections of PD-123,319 (1 mg·kg bw^−1 bolus+1 mg·kg bw^−1·h^−1; Sigma Aldrich) followed 30 minutes later by either enalaprilat (0.3 mg·kg bw^−1 bolus+0.3 mg·kg bw^−l·h^−1; Novaplus 1.25 mg·m^−1; Baxter Healthcare Corporation, Deerfield, Ill.) or tempol (174 μmmol·kg bw^−1 bolus+174 μmmol·kg bw^−1·h^−1; Sigma Aldrich) followed 30 minutes later by enalaprilat or candesartan (1 mg·kg bw^−1 bolus+1 mg·kg bw^−1·h^−1; provided by Astra Zeneca, Södertälje Sweden) followed after 30 minutes by enalaprilat. […] See e.g., Duke et al., Br. J. Pharmacol., 144:486-492 (2005).
The data in Example 1 was analyzed using ANOVA for multiple data sets and Student's t-test for paired comparisons. When appropriate, this was followed by Dunnett's post hoc. […] The Mann-Whitney test was used for Western blot densitometry data. For all comparisons, p<0.05 was considered statistically significant. All values are expressed as mean±SEM.

[4] = solutions containing Tempol; cited from earlier work
[5] = tested on: 2K,1C Goldblatt rats in the early stages of renal hypertension; conditions: early stage 2K,1C Goldblatt rats; prolonged administration; cited from earlier work
[6] = tested on: sham rats; experiment: Acute interventions in anesthetized age-matched sham rats: MAP, cortical blood flow and renal pO2; assay type: in vivo, Sprague-Dawley rats
Method: as §1, §2
as §3, with “Rats were prepared according to the protocol described in Palm et al., Hypertension, 51:345-351 (2008). Briefly, the left femoral artery was catheterized for monitoring mean arterial blood pressure (MAP) and the left femoral vein for infusion of saline (5 ml·kg bw^−1·h^−1).” left out, “(1997). […]” for “(1997).”
The data in Example 1 was analyzed using ANOVA for multiple data sets and Student's t-test for paired comparisons. […] All values are expressed as mean±SEM.

[7] = tested on: normal rats; conditions: cited from earlier work
[8] = acute i.v. bolus + infusion of the agent alone
[9] = clipped kidney, agent alone, listed as tempol

SMILES: CC1(C)CC(O)CC(C)(C)N1[O] [Tempol, 4-hydroxy-2,2,6,6-tetramethyl-1-piperidine-1-oxyl]
- anti-hypertensive effect [1]: demonstrated anti-hypertensive effect
- renal blood flow, cortical perfusion or GFR [2]: failed to improve renal blood flow, cortical perfusion or GFR
- mean arterial blood pressure (MAP) [3, 8]: lowers MAP; also recorded: more effective in lowering MAP
- mean arterial blood pressure (MAP) ([3]; acute i.v. bolus + infusion of the agent alone, listed as tempol): significantly more effective
- renal cortical blood flow (CBF) ([3]; clipped kidney, agent alone): effectively increases both the cortical blood flow and the tissue pO2
- renal cortical pO2 ([3]; clipped kidney, agent alone): effectively increases both the cortical blood flow and the tissue pO2
- renal medullary pO2 ([3]; clipped kidney, agent alone): effectively increases both the cortical blood flow and the tissue pO2
- renal cortical blood flow (CBF) [3, 9]: increased
- renal cortical pO2 [3, 9]: increased the cortical pO2
- renal medullary pO2 [3, 9]: increased the medullary pO2
- stability of solutions left in sunlight [4]: discolor when left in sunlight
- glomerular filtration rate (GFR) [5]: improved the glomerular filtration rate (GFR)
- mean arterial pressure (MAP) [5]: reduced mean arterial pressure (MAP)
- oxygen tension (pO2) of the clipped kidney [5]: improved oxygen tension (pO2) of the clipped kidney
- renal blood flow [5]: improved renal blood flow
- renal cortical pO2 [6]: not effective

SMILES: C[C@H](N[C@@H](CCc1ccccc1)C(=O)O)C(=O)N1CCC[C@H]1C(=O)O [enalaprilat, reference compound]
- renal cortical blood flow (CBF) ([3]; enalaprilat after tempol): did not change further
- renal medullary pO2 ([3]; enalaprilat after tempol): did not change the medullary pO2 further
- renal cortical blood flow (CBF) ([3]; enalaprilat following candesartan): reduced significantly
- mean arterial blood pressure (MAP) ([3]; enalaprilat given 30 minutes after PD-123,319): did reduce the MAP
- mean arterial blood pressure (MAP) ([3]; enalaprilat given 30 minutes after candesartan): did not produce a further fall in MAP
- mean arterial blood pressure (MAP) ([3]; enalaprilat given 30 minutes after tempol): did not produce a further fall in MAP
- renal cortical pO2 ([3]; tempol followed by enalaprilat): not changed significantly
- renal cortical pO2 [6]: increased cortical pO2

SMILES: Cc1cc(Cn2cnc3c2C[C@@H](C(=O)O)N(C(=O)C(c2ccccc2)c2ccccc2)C3)ccc1N(C)C [PD-123,319, reference compound]
- mean arterial pressure or kidney function [7]: has not been found to change mean arterial pressure or kidney function
- mean arterial blood pressure (MAP) [3, 8]: unaffected
- renal cortical blood flow (CBF) ([3]; clipped kidney, agent alone): Neither candesartan nor PD-123,319 alone changed CBF significantly
